In patent US9897592B2, “Methods for identifying arthropod repellents and attractants, and compounds and compositions identified by such methods” (The Regents of the University of California, priority 2013, dated 2018):

How the values were obtained:
cpA neuron [1] = test: Inhibition screen: odorant overlaid on 0.15% CO2 stimulus, cpA response; assay type: cell-based, Aedes aegypti; conditions: for % Inhibition: 1-s odorant stimulus (10^−2) in the middle of a 3-s 0.15% CO2 stimulus, vs solvent overlay
Experimental: Percent inhibition was calculated by comparing mean odorant overlay responses to mean solvent overlay responses, and error bars are s.d.
(§1) CpA-off and sham treated mosquitoes were pre-treated for 3 min in an upended 1 L glass dish in which 100 μl of fresh butyryl chloride (1%) or paraffin oil was allowed to vaporize for 10-20 min. The odor delivery system for different screens is shown in FIG. 7b; solvent responses during the same recording session were subtracted. Inhibition screen was tested. For the ultra-prolonged activator the 3-s stimulus was delivered from a 10 ml disposable pipette using a CS-55 stimulus controller (Syntech), CO2 was delivered, and responses to subsequent odor stimuli were calculated by subtracting baseline activity 1 s prior to each stimulus. When responses to repeated pulses of cyclopentanone and CO2 were compared, baseline activity between seconds 5 and 6 following each stimulus was subtracted. Spike counting was done manually or with Igor Pro6.2 (Wavemetrics) with the Neuromatic v2.00 macro (by Jason Rothman), and peak-to-peak spike amplitudes for FIG. 8 were analysed in Clampfit 10.3 (Molecular Devices).

cpA neuron [2] = test: Single-sensillum recording: activation of cpA neuron by odorants; assay type: cell-based, Aedes aegypti; conditions: A. aegypti cpA, 0.5-s pulses, odorants 10^−2 in paraffin oil or water, solvent response subtracted
Experimental: FIG. 3b depicts representative traces and mean responses of the A. aegypti cpA neuron to 0.5-s pulses of 138 predicted compounds screened using single-sensillum recordings, in which odorants were diluted to 10^−2 in paraffin oil or water, and responses to solvent have been subtracted, n=2-6, and error bars are s.d.
FIG. 5f is a bar graph illustrating the mean responses of the A. aegypti cpA neuron to 0.5-s pulses of 22 newly predicted compounds screened as in FIG. 3b, where salmon bars correspond to odorants found in human odor, odorants were diluted to 10^−2 in paraffin oil or water, and responses to solvent have been subtracted, and n=2-5.
Adult female A. aegypti (Linnaeus 1762) (Rockefeller strain) A. gambiae sensu stricto Giles 1902 (G3 strain), or C. quinquefasciatus Say 1823 were tested 3-12 days post-emergence with single-sensillum extracellular recordings. Chemicals were obtained from Sigma-Aldrich at the highest purity (typically >99%) and were dissolved in paraffin oil or water. […] Response to clean beads was subtracted from the results reported. Only sensilla with cpA activity of <20 spikes s^−1 to negative control were considered for analysis.
as §1
From the large list of cpA receptor ligands predicted from Example 3 above, 138 compounds were selected based on desirable criteria for application such as smell, presence in natural sources, human safety profile, and cost to procure. These compounds were tested individually using single-sensillum electrophysiology on the cp sensillum of female A. aegypti, according to the procedure described in Example 1 above.

C. quinquefasciatus = test: Semi-field two-choice greenhouse trapping; assay type: in vivo, Culex quinquefasciatus
Text: FIG. 4g is a schematic of two-choice greenhouse experiments with two counterflow geometry traps, in which mosquitoes were trapped overnight in odorant-baited and solvent (water)-baited traps.
Semi-field trapping: Two modified greenhouses at the Agricultural Experiment Station at the University of California, Riverside, were used as described previously^2, with modifications. Fifty laboratory-reared, mated, non-blood fed female C. quinquefasciatus aged 8-14 days and starved for 24 hrs were released each evening around 5 pm and traps collected at ˜7 am. Counter flow geometry traps baited with CO2 (250 ml min^−1, ˜670 mmol/hr) odorant were used as described^2, with modifications. Odorant solutions in water were dispensed from 20 cm long gauze wicks protruding from uncapped 50 ml tubes beneath the trap outflow. For each trial, one baited trap and one control trap (water-filled) were placed in each of two greenhouses (FIG. 4g). For two-choice CO2 trials, water was placed under both traps. For two-choice ethyl pyruvate trials, both traps expelled CO2, and one trap also released ethyl pyruvate from an open 2.8×7 cm glass vial. Since ethyl pyruvate has very low volatility pure compound was used to generate ˜1.7 mmol/hr. An empty vial was placed under control traps. Treatment position and trap were alternated across trials. Volume of solution lost from tubes containing 5%, 10%, or 20% cyclopentanone were measured after each trial and the average loss of molecules calculated respectively for 3 concentrations as (±s.d.) of 0.7 (±0.1), 1.7 (±0.4), and 3.8 (±0.3) mmol/hr, respectively. Preference index=(# mosquitoes in odor-baited trap−# mosquitoes in control trap)/(total # mosquitoes caught in both traps).
The efficacy of cyclopentanone as a lure was tested using traps in controlled semi-field experiments with C. quinquefasciatus, a mosquito present in Southern California, where the experiments took place. 50 female mosquitoes were released overnight in a modified greenhouse that contained two counter-flow geometry mosquito traps (FIG. 4g). One trap was baited with an evaporative lure of cyclopentanone diluted in water, and the second trap was baited with water alone.

cpA neuron [3] = test: Ultra-prolonged activation: cpA firing after 3-s odorant exposure; assay type: cell-based, Aedes aegypti
Text: FIG. 3d depicts representative traces from the A. aegypti cp sensillum to 1-s pulses of 0.15% CO2 prior to and following a 3-s exposure to either solvent (paraffin oil) or (E)-2-methylbut-2-enal (10^−1).
FIG. 3e is a graph illustrating the cpA baseline activity in the 1 s prior to each stimulus is elevated following exposure to odorant, where error bars are s.e.m.
FIG. 3f is a bar graph illustrating the mean responses of the cpA neuron to 1-s pulses of 0.15% CO2, calculated by subtracting the 1 s of the baseline activity prior to each stimulus, where n=5-6 individuals, analysed by t-test, ***p<0.001, and error bars are s.e.m.
as §1

CO2 receptor = conditions: cited from earlier work
A. aegypti [4] = test: Wind tunnel assay of attraction to human foot odor beads; assay type: in vivo, Aedes aegypti
Experimental: FIG. 2h is a schematic of wind tunnel assay, where human odor was provided by a dish of glass beads that had been worn in socks for ˜6 hrs (Person 1), and flight behaviour of individual female mosquitoes was recorded for 5 min or until they landed on the beads.
FIGS. 2i-k are bar graphs illustrating the proportion of butyryl chloride pre-exposed and sham treated mosquitoes presented with beads with no odor or foot odor that landed on beads (FIG. 2i), that took off from the release cage (FIG. 2j), and that did take off that succeeded in landing on the beads (FIG. 2k), where n=20-23 individuals per condition, analysed by one-tailed proportion Z-test, *p<0.05, **p<0.01, ***p<0.001, and error bars are s.e.m. All odorants except CO2 were dissolved in paraffin oil at 10^−2 except where indicated. […]

antennal neurons = test: Electroantennogram (EAG) after butyryl chloride treatment; assay type: cell-based, Aedes aegypti
Experimental: FIG. 2e is a graph illustrating averaged traces and FIG. 2f is a graph illustrating mean electroantennograph (EAG) responses to air puffed over glass beads laden with foot odor or a clean bead control, where EAG peaks are normalized to 3-methyl-1-butanol response, n=9, and analysed by t-test.
FIG. 9d illustrates EAG responses normalized to the reference odor 3-methyl-1-butanol. No significant differences due to treatment (n=9; t-test).
Standard whole-antenna recordings were performed with minor modifications. Traces were averaged using Clampfit software (Molecular Devices), and responses were normalized to interspersed pulses of a reference odorant, 3-methyl-1-butanol, according to the formula: Raw response (mV)/(ax+by), where a and b are the responses (mV) to the immediately previous and subsequent reference odor stimulation, respectively, and x and y are the proportion of time elapsed between stimuli (so that x+y=1).

cpA neuron [5] = test: Butyryl chloride pre-exposure (cpA-off): cp sensillum responses to CO2, skin odorants, foot odor; assay type: cell-based, Aedes aegypti
Text: FIG. 2b depicts representative cp responses to 0.5-s pulses of indicated odorants after a 3-min pre-exposure to butyryl chloride (10^−2) (cpA-off) or solvent (sham treatment).
FIG. 2c is a bar graph illustrating the mean odorant-evoked responses of the cpA neuron in cpA-off and sham treated mosquitoes, and FIG. 2d is a bar graph illustrating the combined odor-evoked responses of two neighbouring neurons, cpB and cpC, where for both of these figures, n=6 individuals, 1-4 sensilla surveyed per individual; analysed by nested ANOVA, and baseline refers to cpA activity in the presence of room air.
as §1

A. aegypti [6] = test: Short-range attraction to heat and humidity; assay type: in vivo, Aedes aegypti; conditions: after pre-exposure; control for general deficits
Experimental: FIG. 9f illustrates mosquitoes' tendency to rest at the top surface of the cage increased in the presence of a warm, wet stimulus. […] No significant differences due to treatment (n=6 replicates; Mann-Whitney rank-sum test).
Ten 6-day-old female A. aegypti were starved 30 hrs in a 7 cm diameter×˜5 cm high cage with wire mesh on one side and placed inside an aquarium. After 5 min a beaker with 750 ml warm water (40° C.) and filter paper soaked with 400 μl water were placed 5 mm above the cage (FIG. 9e). CpA-off and sham treated mosquitoes were video-recorded and counted at 30 s intervals.

A. aegypti [7] = test: Hand-in-cage repellency assay; assay type: in vivo, Aedes aegypti; conditions: mesh treated 500 μl, 10% in acetone
Text: FIG. 4c depicts representative images (left) of hand-in-cage assay mesh window and a graph (right) illustrating the mean number of mosquitoes on the netting at the indicated time points for ethyl pyruvate-treated or solvent-treated netting. n=8 each.
Forty 4-10-day-old female A. aegypti were starved 24 hrs and released in a 30×30 cm cage with a glass top, and trials commenced between 1400 and 1700 hrs. A human hand wearing a nitrile glove (Sol-vex) with a 7×6 cm window covered by two layers of fine polyester mesh (BioQuip, mesh size 26×22 holes per in^2) held in place by magnetic spacers, was inserted into the cage. The lower mesh was 1.5 mm above, and upper mesh was 6 mm above the hand. While skin emanations passed freely through the mesh window, the hand was protected from contact with mosquitoes and treated mesh. The outside mesh was treated with ethyl pyruvate (500 μl, 10% in acetone) or solvent. After letting solvent evaporate the glove was assembled. […] Trials were video recorded and mosquitoes on the mesh were counted every 15 s.
An arm-in-cage repellency assay was used in this Example using gloves with chemical treated mesh-covered windows to quantify attraction of A. aegypti mosquitoes to the human hand without exposing the hand to mosquito bites or skin to contact with test chemicals.

cpA neuron [8] = test: Ethyl pyruvate overlaid on foot odor stimulus, cpA response; assay type: cell-based, Aedes aegypti; conditions: presented together, 1-s 10^−2 on 2-s foot odor
Text: FIG. 4b depicts representative trace and mean response when a 1-s stimulus of ethyl pyruvate (10^−2) is overlaid on a 2-s stimulus of foot odor (mixed beads from Person 1 and Person 2), where n=6.
The cpA inhibitor ethyl pyruvate was selected for testing since it is listed as a GRAS compound, is approved as a flavor agent in food, and has a pleasant smell (fruity, sweet, rum, caramel) (Table 3 above).

2-ethyl-5(6)-methylpyrazine
% Inhibition (cpA neuron [1]): −2.0%
Activation (spikes s^−1) (cpA neuron [2]): 14.0 spikes s^−1

c1cn[nH]c1 [1H-pyrazole]
% Inhibition (cpA neuron [1]): 4.9%
Activation (spikes s^−1) (cpA neuron [2]): 3.5 spikes s^−1

CC(O)C(=O)O (stereo not shown) [2-hydroxypropanoic acid]
Activation (spikes s^−1) (cpA neuron [2]): −1.0 spikes s^−1
catch vs control traps (C. quinquefasciatus; 10% lactic acid bait): did not catch significantly more mosquitoes

CC(C)C=O [2-methylpropanal]
% Inhibition (cpA neuron [1]): 5.8%
Activation (spikes s^−1) (cpA neuron [2]): 29.0 spikes s^−1

CC(C)CS [2-methylpropane-1-thiol]
% Inhibition (cpA neuron [1]): −2.9%
Activation (spikes s^−1) (cpA neuron [2]): 37.0 spikes s^−1

CC(=O)C=O [2-oxopropanal]
% Inhibition (cpA neuron [1]): −33.6%
Activation (spikes s^−1) (cpA neuron [2]): −2.0 spikes s^−1

C/C=C(\C)C=O [(E)-2-methylbut-2-enal]
duration of sustained firing of cpA (cpA neuron [3]; after 3-s exposure): at least 5.5 min
sustained firing of cpA (cpA neuron [3]; after 3-s exposure (10^−1)): ~45 spikes s^−1
cpA responses to 1-s pulses of 0.15% CO2 relative to controls (cpA neuron [3]; during sustained firing period): significantly reduced
Activation (spikes s^−1) (cpA neuron [2]): 59.5 spikes s^−1

CCCC(=O)O [butanoic acid]
inhibition of the CO2 receptor (CO2 receptor): strongest known inhibitors

CCCC=O [butyraldehyde]
inhibition of the CO2 receptor (CO2 receptor): strongest known inhibitors

CCCC(=O)Cl [butyryl chloride]
proportion of mosquitoes that initiated upwind flight from release cage (A. aegypti [4]; after pre-exposure (cpA-off)): greatly reduced
proportion of mosquitoes that landed on human odor beads (A. aegypti [4]; after pre-exposure, 5-min assay): substantially reduced
summed responses of antennal neurons to panel of skin odorants (EAG) (antennal neurons; after treatment): unaffected
summed response of antennal neurons to foot odor (EAG) (antennal neurons; with or without treatment): not statistically different
cpA subsequent responses to 1% CO2 (cpA neuron [5]; 3-min exposure to 10^−2 volatiles, tested ~5-20 min after exposure): completely abolished
cpA responses to activating skin odorants (cpA neuron [5]; after 3-min pre-exposure): substantially reduced
time to recovery of cpA to control levels after treatment (cpA neuron [5]; after 3-min pre-exposure): 12 to 24 h
odor-evoked responses of cpB and cpC neurons (cpA neuron [5]; after treatment, selectivity for cpA): not reduced
cpA firing in response to subsequent CO2 stimuli (cpA neuron [5]; single puff of 1% butyryl chloride): inhibits cpA from firing
cpA response to foot odor collected on beads (cpA neuron [5]; tested ~5-20 min after exposure): completely lost
ability or preference for resting at top of cage, warm moist stimulus (A. aegypti [6]): did not impair

CCOC(=O)C(C)=O [ethyl 2-oxopropanoate]
inhibition of cpA activity (cpA neuron [1]; overlaid on 0.15% CO2): strongly inhibited
Activation (spikes s^−1) (cpA neuron [2]): −63.0 spikes s^−1
number of times mosquitoes landed on mesh over human hand (A. aegypti [7]): substantially reduced
catch of CO2-baited trap also dispensing odorant vs control CO2-baited trap (C. quinquefasciatus; pure compound, ~1.7 mmol/hr): significantly fewer mosquitoes
response of cpA neuron to human foot odor (cpA neuron [8]): completely eliminates
